“Also recorded” adds a separate entry of the source.
Key:
[1] = Selectivity for reacting with Cys over other amino acids (LC-MS); type: physicochemical; conditions: compound 10 μM, amino acid 30 μM (3 equiv.), 30 min, PBS/MeOH 4:1
Method: Selectivity of NAI for Reacting with Cys Over Other Amino Acids
Stock solution of NAIA-4 and NAIA-5, respectively, in DMSO was diluted by PBS/MeOH solution mixture (4:1, v/v; 500 μL), reaching final concentration of 10 μM. Stock solution of amino acid in DMSO was then freshly prepared, and added to the compound solution at final concentration of 30 μM. The solution mixture was incubated at room temperature for 30 min. After that, an aliquot of the reaction mixture (10 μL) was sent for LC-MS analysis. Selected ion chromatograms, with m/z=325 corresponding to [NAIA-4+H]^+ or [NAIA-5+H]^+, were extracted and analyzed by integrating the area under curve.
As fast-reacting probes are often susceptible to hydrolysis, we sought to investigate the aqueous stability of NAIA-C5 amide. […] Taking the excellent reaction kinetics and a mere 14% degradation in 30 min into account, NAIA-C5 amide was considered to be a useful tool in cysteine profiling (FIG. 17C and FIG. 17F).

HepG2 cells = assay: Confocal fluorescence imaging of HepG2 cells labeled with probe for different time intervals; type: cell-based; conditions: 10 μM; for cellular fluorescence intensity: 15, 30 and 60 min
Method: HepG2 Cells Labeled by NAIA-5 or IAA with Different Time Intervals for Imaging Experiments
HepG2 cells were plated on a 8-well Nunc Lab-Tek chambered slide system (ThermoFisher Scientific; 177402) and allowed to grow in complete medium at 37° C. with 5% CO2 to ca. 70% confluency. The cells were incubated with NAIA-5 and IAA (10 μM) respectively in complete medium for the indicated time interval, washed with PBS and then fixed by 4% paraformaldehyde in PBS at room temperature for 15 min. After washing with PBS, the fixed cells were permeabilized by PBS with 0.5 vol % Triton X-100 at room temperature for 30 min. The cells were then washed and incubated with a master mix solution containing CuSO4, THTPA, azide-fluor 545 and sodium ascorbate at final concentrations of 100, 500, 20 and 5000 μM respectively. After incubation in dark at room temperature for 1 h, the cells were washed with PBS and stained by Hoechst 33342 in PBS (final concentration=8.2 μM) at room temperature for 15 min. The cells were washed thrice with PBS and then imaged by confocal fluorescence microscopy. Hoechst 33342 was excited with a 405 nm diode laser, and emission was collected on a META detector between 371 and 507 nm. Fluor 545 was excited by a 561 nm diode laser and emission was collected on a META detector between 576 and 683 nm. Image analysis was performed by use of ImageJ. A region of interest (ROI) was created around individual cell, and cellular fluorescence intensity was measured. The reported average cellular fluorescence intensity was determined by averaging the measured intensity from 30 different cells from 3 different biological replicates/group. Statistical analyses were performed with a two-tailed Student's t-test (MS Excel).
Confocal fluorescence microscopy imaging was performed with a Zeiss laser scanning microscope 880 with a 20× water-immersion objective lens using ZEN 2.3 (Black Version) software (Carl Zeiss) with 3× magnification zoom-in. Hoechst 33342 was excited with a 405 nm diode laser, and emission was collected on a META detector between 371 and 507 nm. Fluor 545 was excited by a 561 nm diode laser and emission was collected on a META detector between 576 and 683 nm. Image analysis was performed by use of ImageJ. A region of interest (ROI) was created around individual cell, and cellular fluorescence intensity was measured. The reported average cellular fluorescence intensity was determined by averaging the measured intensity from 30 different cells from 3 different biological replicates/group. Statistical analyses were performed with a two-tailed Student's t-test (MS Excel).
To examine the underlying mechanism of better cysteine labeling in live cells by NAIA, we conducted confocal fluorescence imaging experiments on HepG2 cells treated with NAIA-5 and IAA respectively (both at 10 μM). After treatment for the indicated time intervals, the cells were washed with PBS, fixed by 4% paraformaldehyde in PBS and reacted with azide-fluor 545 through CuAAC. The stained cells were then washed with PBS and imaged by confocal fluorescence microscopy. […] In view of the fast and better labeling of reactive cysteines in live cells, we anticipate that NAIAs can be good candidates for capturing cysteines with dynamic changes in reactivity/modifications in cells. The ability of NAIAs to work nicely with confocal fluorescence microscopic imaging also illustrates their potential application as imaging probes for cellular cysteine reactivity. […]

cellular permeability (HepG2 cells; inferred from live-cell imaging)	SMILES	selectivity toward cysteine over other amino acids [1]	labeling of cytosolic and nuclear proteins (colocalization with Hoechst channel) (HepG2 cells)	cellular fluorescence intensity (HepG2 cells)
	C#CCCCCNC(=O)CI [IAA, N-Hex-5-ynyl-2-iodoacetamide, reference compound]	undesired reactivity with serine and lysine	lower Manders' colocalization coefficient	much weaker fluorescence at 15 min
good cellular permeability	C#CCCCCNC(=O)COc1ccc2c(ccn2C(=O)C=C)c1 [NAIA-5]	excellent selectivity toward cysteine over other amino acids; also recorded: Significant decreases in NAIA-4 and NAIA-5 levels were only found in the solution mixture with N-acetyl-L-cysteine methyl ester	good labeling of proteins in both cytosol and nucleus	Significantly higher fluorescence intensities were found in cells treated with NAIA-5 than IAA
